Assay results as given in ChEMBL document CHEMBL4118049, “HPLC-Based Activity Profiling for GABAA Receptor Modulators in Extracts: Validation of an Approach Utilizing a Larval Zebrafish Locomotor Assay” (J Nat Prod, 2017).
Calls of active or inactive are those of the source. No cut-off for these calls is given here.

Key:
Danio rerio [1] = species: Danio rerio; experiment: Anticonvulsant activity in 7-days post fertilized zebra fish larvae assessed as reduction in pentylenetetrazol-induced locomotor activity by measuring total distance traveled by larvae pretreated for 3 hrs followed by pentylenetetrazol addition measured at 5 mins interval 30 mins; type: functional, organism-based
Danio rerio [2] = species: Danio rerio; experiment: Toxicity in 7-days post fertilized zebra fish larvae after 1.5 to 24 hrs by microscopic analysis; type: organism-based; settings: zebrafish, in vivo
Danio rerio [3] = species: Danio rerio; experiment: Anticonvulsant activity in 7-days post fertilized zebra fish larvae assessed as reduction in pentylenetetrazol-induced locomotor activity by measuring total distance traveled by larvae at 0.25 to 2 uM pretreated for 3 hrs followed by pentylenetetrazol addition measured at 5 mins interval 30 mins; type: functional, organism-based
Danio rerio [4] = species: Danio rerio; experiment: Anticonvulsant activity in 7-days post fertilized zebra fish larvae assessed as reduction in pentylenetetrazol-induced locomotor activity by measuring total distance traveled by larvae at 1.5 to 6 uM pretreated for 3 hrs followed by pentylenetetrazol addition measured at 5 mins interval 30 mins; type: functional, organism-based
Danio rerio [5] = species: Danio rerio; experiment: Anticonvulsant activity in 7-days post fertilized zebra fish larvae assessed as reduction in pentylenetetrazol-induced locomotor activity by measuring total distance traveled by larvae at 1.25 to 10 uM pretreated for 3 hrs followed by pentylenetetrazol addition measured at 5 mins interval 30 mins; type: functional, organism-based

Structure (SMILES)	Activity (Danio rerio [1])	MTD (Danio rerio [2])	Activity (Danio rerio [3])	Activity (Danio rerio [4])	Activity (Danio rerio [5])
CC1=C2[C@H](/C=C(\C)C(=O)O)CC[C@@H](C)[C@H]2CC1 [VALERENIC ACID]	Dose-dependent effect	10 µM	–	–	–
C=C[C@]1(C)C=C2CC[C@@H]3[C@](C)(CCC[C@@]3(C)C(=O)O)[C@H]2CC1 [SANDARACOPIMARIC ACID]	–	2 µM	Active	–	–
CN1C(=O)CN=C(c2ccccc2)c2cc(Cl)ccc21 [DIAZEPAM]	Dose-dependent effect	20 µM	–	–	–
CC(C)c1ccc2c(c1)CC[C@H]1[C@](C)(C(=O)O)CCC[C@]21C [DEHYDROABIETIC ACID]	–	6 µM	–	Active	–
CC(C)=CC[C@]12Oc3cc(O)c([C@H]4C=C(C)C[C@H](c5ccc(O)cc5O)[C@H]4C(=O)c4ccc(O)cc4O)c(O)c3C(=O)[C@@]1(O)Oc1cc(O)ccc12 [SANGGENON C]	–	2 µM	inactive	–	–
C=CCc1ccc(O)c(-c2cc(CC=C)ccc2O)c1 [MAGNOLOL]	Dose-dependent effect	4 µM	–	–	–
C=C(C)[C@H](CC=C(C)C)Cc1c(O)cc(O)c2c1O[C@H](c1ccc(O)cc1O)CC2=O [SOPHORAFLAVANONE G]	–	10 µM	–	–	Active
O=C(/C=C/C=C/c1ccc2c(c1)OCO2)N1CCCCC1 [PIPERINE]	Dose-dependent effect	12 µM	–	–	–
